Measurements reported in patent US20260193293A1, “PEPTIDES CAPABLE OF INHIBITING PROTEIN-PROTEIN INTERACTIONS AT GABAB1A SUBUNIT AND USES THEREOF” (UNIVERSITY OF COPENHAGEN, priority 2022, published 2026).
Non-standard residues stand in square brackets, D forms with d. Residues, ends and D or L forms follow the SMILES beside them. *: point of attachment. NMeT = CN[C@H](C(=O)O)[C@@H](C)O; NMeD = CN[C@@H](CC(=O)O)C(=O)O; NMeA = CN[C@@H](C)C(=O)O; Bn = c1ccc(C*)cc1; Sar = CNCC(=O)O

Target: Sushi domains (SD1/2) protein
Experiment: Fluorescence polarization (FP) competition assay with AJAP-1probe, calculated Ki
Format: binding
Conditions: Table 4, truncation and elongation scans of APP epitope; read-out: Ki (nM) mean ± SEM
Procedure: Fluorescence polarization (FP). FP assay was employed to determine the binding affinity of peptides in flat bottom black 384-well plates (Corning Life Science) using a Safire2 plate reader (Tecan). All experiments were conducted in 1×PBS (pH 7.4) containing 1% bovine serum albumin (BSA) at rt. The fluorescence polarization values were measured using excitation/emission wavelengths of 530/580 nm. The instrumental Z-factor was adjusted to obtain the maximum fluorescence intensity and the G-factor was calibrated to give an initial millipolarization value of 20 mP. All FP assays including saturation or competition experiments were performed using 25 nM of TAMRA labeled peptides as probes. For saturation assay, the millipolarization values were measured after mixing of probes with 12 serial 1 to 1 diluted concentrations of Sushi domains (SD1/2) protein. All experiments were performed in triplicate and the data were plotted to the one-site binding model using GraphPad Prism 9 to calculate the Kd of probes. […] The experiments were performed at least in triplicate and the data were fitted to the sigmoidal dose response curve using GraphPad Prism 9 to obtain the IC50 of peptides. The Ki values were calculated according to Nikolovska-Coleska et al^310.

SMILES | Ki [nM]
CC(=O)N[C@@H](CCC(=O)O)C(=O)N[C@@H](CC(=O)O)C(=O)N[C@@H](CC(=O)O)C(=O)N[C@@H](CO)C(=O)N[C@@H](CC(=O)O)C(=O)N[C@H](C(=O)N[C@@H](Cc1c[nH]c2ccccc12)C(=O)N[C@@H](Cc1c[nH]c2ccccc12)C(=O)NCC(=O)NCC(=O)N[C@@H](C)C(=O)N[C@@H](CC(=O)O)C(=O)N[C@H](C(=O)N[C@@H](CC(=O)O)C(=O)N[C@@H](Cc1ccc(O)cc1)C(=O)N[C@@H](C)C(=O)N[C@@H](CC(=O)O)C(N)=O)[C@@H](C)O)C(C)C (Ac-EDDSDVWWGGADTDYAD-NH2) | 281 ± 4

Same assay, conditions: Table 7, Ala-, D-amino acids and N-methylation scans of APPWT; read-out: Ki (nM) mean ± SEM

SMILES | Ki [nM]
CC(=O)N[C@@H](CCC(=O)O)C(=O)N[C@@H](CC(=O)O)C(=O)N[C@@H](CC(=O)O)C(=O)N[C@@H](CO)C(=O)N[C@@H](CC(=O)O)C(=O)N[C@H](C(=O)N[C@@H](Cc1c[nH]c2ccccc12)C(=O)N[C@@H](Cc1c[nH]c2ccccc12)C(=O)NCC(=O)NCC(=O)N[C@@H](C)C(=O)N[C@@H](CC(=O)O)C(=O)N[C@H](C(=O)N(C)[C@@H](CC(=O)O)C(N)=O)[C@@H](C)O)C(C)C (Ac-EDDSDVWWGGADT[NMeD]-NH2) | 565 ± 23
CC(=O)N[C@@H](CCC(=O)O)C(=O)N[C@@H](CC(=O)O)C(=O)N[C@@H](CC(=O)O)C(=O)N[C@@H](CO)C(=O)N[C@@H](CC(=O)O)C(=O)N[C@H](C(=O)N[C@@H](Cc1c[nH]c2ccccc12)C(=O)N[C@@H](Cc1c[nH]c2ccccc12)C(=O)NCC(=O)NCC(=O)N[C@@H](C)C(=O)N[C@@H](CC(=O)O)C(=O)N(C)[C@H](C(=O)N[C@@H](CC(=O)O)C(N)=O)[C@@H](C)O)C(C)C (Ac-EDDSDVWWGGAD[NMeT]D-NH2) | 503 ± 13
CC(=O)N[C@@H](CCC(=O)O)C(=O)N[C@@H](CC(=O)O)C(=O)N[C@@H](CC(=O)O)C(=O)N[C@@H](CO)C(=O)N[C@@H](CC(=O)O)C(=O)N[C@H](C(=O)N[C@@H](Cc1c[nH]c2ccccc12)C(=O)N[C@@H](Cc1c[nH]c2ccccc12)C(=O)NCC(=O)NCC(=O)N[C@@H](C)C(=O)N(C)[C@@H](CC(=O)O)C(=O)N[C@H](C(=O)N[C@@H](CC(=O)O)C(N)=O)[C@@H](C)O)C(C)C (Ac-EDDSDVWWGGA[NMeD]TD-NH2) | 403 ± 14
CC(=O)N[C@@H](CCC(=O)O)C(=O)N[C@@H](CC(=O)O)C(=O)N[C@@H](CC(=O)O)C(=O)N[C@@H](CO)C(=O)N[C@@H](CC(=O)O)C(=O)N[C@H](C(=O)N[C@@H](Cc1c[nH]c2ccccc12)C(=O)N[C@@H](Cc1c[nH]c2ccccc12)C(=O)NCC(=O)NCC(=O)N(C)[C@@H](C)C(=O)N[C@@H](CC(=O)O)C(=O)N[C@H](C(=O)N[C@@H](CC(=O)O)C(N)=O)[C@@H](C)O)C(C)C (Ac-EDDSDVWWGG[NMeA]DTD-NH2) | 704 ± 11
CC(=O)N[C@@H](CCC(=O)O)C(=O)N[C@@H](CC(=O)O)C(=O)N[C@@H](CC(=O)O)C(=O)N[C@@H](CO)C(=O)N[C@@H](CC(=O)O)C(=O)N[C@H](C(=O)N[C@@H](Cc1c[nH]c2ccccc12)C(=O)N[C@@H](Cc1c[nH]c2ccccc12)C(=O)NCC(=O)N(C)CC(=O)N[C@@H](C)C(=O)N[C@@H](CC(=O)O)C(=O)N[C@H](C(=O)N[C@@H](CC(=O)O)C(N)=O)[C@@H](C)O)C(C)C (Ac-EDDSDVWWG[Sar]ADTD-NH2) | 161 ± 2

Same assay, conditions: Table 10, deep mutational scanning validation variants of APPWT; read-out: Ki (nM) mean ± SEM

SMILES | Ki [nM]
CC(=O)N[C@@H](CCC(=O)O)C(=O)N[C@@H](CC(=O)O)C(=O)N[C@@H](CC(=O)O)C(=O)N[C@@H](CO)C(=O)N[C@@H](CC(=O)O)C(=O)N[C@H](C(=O)N[C@@H](Cc1c[nH]c2ccccc12)C(=O)N[C@@H](Cc1c[nH]c2ccccc12)C(=O)NCC(=O)NCC(=O)N[C@@H](C)C(=O)N[C@@H](CC(=O)O)C(=O)N[C@@H](Cc1c[nH]c2ccccc12)C(=O)N[C@@H](CC(=O)O)C(N)=O)C(C)C (Ac-EDDSDVWWGGADWD-NH2) | 459 ± 21
CC(=O)N[C@@H](CCC(=O)O)C(=O)N[C@@H](CC(=O)O)C(=O)N[C@@H](CC(=O)O)C(=O)N[C@@H](CO)C(=O)N[C@@H](CC(=O)O)C(=O)N[C@H](C(=O)N[C@@H](Cc1c[nH]c2ccccc12)C(=O)N[C@@H](Cc1c[nH]c2ccccc12)C(=O)NCC(=O)NCC(=O)N[C@@H](Cc1c[nH]cn1)C(=O)N[C@@H](CC(=O)O)C(=O)N[C@H](C(=O)N[C@@H](CC(=O)O)C(N)=O)[C@@H](C)O)C(C)C (Ac-EDDSDVWWGGHDTD-NH2) | 346 ± 6
CC(=O)N[C@@H](CCC(=O)O)C(=O)N[C@@H](CC(=O)O)C(=O)N[C@@H](CC(=O)O)C(=O)N[C@@H](CO)C(=O)N[C@@H](CC(=O)O)C(=O)N[C@H](C(=O)N[C@@H](Cc1c[nH]c2ccccc12)C(=O)N[C@@H](Cc1c[nH]c2ccccc12)C(=O)NCC(=O)NCC(=O)N[C@@H](CO)C(=O)N[C@@H](CC(=O)O)C(=O)N[C@H](C(=O)N[C@@H](CC(=O)O)C(N)=O)[C@@H](C)O)C(C)C (Ac-EDDSDVWWGGSDTD-NH2) | 204 ± 4
CC(=O)N[C@@H](CCC(=O)O)C(=O)N[C@@H](CC(=O)O)C(=O)N[C@@H](CC(=O)O)C(=O)N[C@@H](CO)C(=O)N[C@@H](CC(=O)O)C(=O)N[C@H](C(=O)N[C@@H](Cc1c[nH]c2ccccc12)C(=O)N[C@@H](Cc1c[nH]c2ccccc12)C(=O)NCC(=O)NCC(=O)N[C@@H](Cc1ccc(O)cc1)C(=O)N[C@@H](CC(=O)O)C(=O)N[C@H](C(=O)N[C@@H](CC(=O)O)C(N)=O)[C@@H](C)O)C(C)C (Ac-EDDSDVWWGGYDTD-NH2) | 255 ± 11
CC(=O)N[C@@H](CCC(=O)O)C(=O)N[C@@H](CC(=O)O)C(=O)N[C@@H](CC(=O)O)C(=O)N[C@@H](CO)C(=O)N[C@@H](CC(=O)O)C(=O)N[C@H](C(=O)N[C@@H](Cc1c[nH]c2ccccc12)C(=O)N[C@@H](Cc1c[nH]c2ccccc12)C(=O)NCC(=O)N1CCC[C@H]1C(=O)N[C@@H](C)C(=O)N[C@@H](CC(=O)O)C(=O)N[C@H](C(=O)N[C@@H](CC(=O)O)C(N)=O)[C@@H](C)O)C(C)C (Ac-EDDSDVWWGPADTD-NH2) | 332 ± 13
CC(=O)N[C@@H](CCC(=O)O)C(=O)N[C@@H](CC(=O)O)C(=O)N[C@@H](CC(=O)O)C(=O)N[C@@H](CO)C(=O)N[C@@H](CC(=O)O)C(=O)N[C@H](C(=O)N[C@@H](Cc1c[nH]c2ccccc12)C(=O)N[C@@H](Cc1c[nH]c2ccccc12)C(=O)N[C@@H](Cc1c[nH]cn1)C(=O)NCC(=O)N[C@@H](C)C(=O)N[C@@H](CC(=O)O)C(=O)N[C@H](C(=O)N[C@@H](CC(=O)O)C(N)=O)[C@@H](C)O)C(C)C (Ac-EDDSDVWWHGADTD-NH2) | 270 ± 4

Same assay, conditions: Table 13, peptides for affinity maturation; read-out: Ki (nM) mean ± SEM

SMILES | Ki [nM]
CC(=O)N[C@@H](CCC(=O)O)C(=O)N[C@@H](CC(=O)O)C(=O)N[C@@H](CC(=O)O)C(=O)N[C@@H](CO)C(=O)N[C@@H](CC(=O)O)C(=O)N[C@H](C(=O)N[C@@H](Cc1c[nH]c2ccccc12)C(=O)N[C@@H](Cc1c[nH]c2ccccc12)C(=O)NCC(=O)N(C)CC(=O)N[C@@H](C)C(=O)N[C@@H](CC(=O)O)C(=O)N[C@H](C(=O)N[C@@H](CC(=O)O)C(N)=O)[C@@H](C)O)C(C)C (Ac-EDDSDVWWG[Sar]ADTD-NH2) | 161 ± 2
CC(=O)N[C@@H](CCC(=O)O)C(=O)N[C@@H](CC(=O)O)C(=O)N[C@@H](CC(=O)O)C(=O)N[C@@H](CO)C(=O)N[C@@H](CC(=O)O)C(=O)N[C@H](C(=O)N[C@@H](Cc1c[nH]c2ccccc12)C(=O)N[C@@H](Cc1c[nH]c2ccccc12)C(=O)N[C@@H](Cc1ccc(O)cc1)C(=O)NCC(=O)N(C)CC(=O)N[C@@H](C)C(=O)N[C@@H](CC(=O)O)C(=O)N[C@H](C(=O)N[C@@H](CC(=O)O)C(N)=O)[C@@H](C)O)C(C)C (Ac-EDDSDVWWYG[Sar]ADTD-NH2) | 164 ± 2
CC(=O)N[C@@H](CCC(=O)O)C(=O)N[C@@H](CC(=O)O)C(=O)N[C@@H](CC(=O)O)C(=O)N[C@@H](CO)C(=O)N[C@@H](CC(=O)O)C(=O)N[C@H](C(=O)N[C@@H](Cc1c[nH]c2ccccc12)C(=O)N[C@@H](Cc1c[nH]c2ccccc12)C(=O)N[C@@H](Cc1ccc(O)cc1)C(=O)NCC(=O)N(C)CC(=O)N[C@H](C(=O)NCC(=O)N[C@@H](CC(=O)O)C(=O)N[C@@H](CCC(=O)O)C(=O)N[C@@H](CC(=O)O)C(N)=O)[C@@H](C)O)C(C)C (Ac-EDDSDVWWYG[Sar]TGDED-NH2) | 138 ± 5
CC(=O)N[C@@H](CCC(=O)O)C(=O)N[C@@H](CC(=O)O)C(=O)N[C@@H](CC(=O)O)C(=O)N[C@@H](CO)C(=O)N[C@@H](CC(=O)O)C(=O)N[C@H](C(=O)N[C@@H](Cc1c[nH]c2ccccc12)C(=O)N[C@@H](Cc1c[nH]c2ccccc12)C(=O)N[C@@H](Cc1ccc(O)cc1)C(=O)N(C)CC(=O)N[C@@H](C)C(=O)N[C@@H](CC(=O)O)C(=O)N[C@H](C(=O)N[C@@H](CC(=O)O)C(N)=O)[C@@H](C)O)C(C)C (Ac-EDDSDVWWY[Sar]ADTD-NH2) | 201 ± 6

Same assay, conditions: Table 16, ncAAs incorporated peptides; read-out: Ki (nM) mean ± SEM

SMILES | Ki [nM]
CC(=O)N[C@@H](CCC(=O)O)C(=O)N[C@@H](CC(=O)O)C(=O)N[C@@H](CC(=O)O)C(=O)N[C@@H](CO)C(=O)N[C@@H](CC(=O)O)C(=O)N[C@H](C(=O)N[C@@H](Cc1c[nH]c2ccccc12)C(=O)N[C@@H](Cc1c[nH]c2ccccc12)C(=O)N[C@@H](Cc1ccc(OCc2ccccc2)cc1)C(=O)NCC(=O)N[C@@H](C)C(=O)N[C@@H](CC(=O)O)C(=O)N[C@H](C(=O)N[C@@H](CC(=O)O)C(N)=O)[C@@H](C)O)C(C)C (Ac-EDDSDVWWY(Bn)GADTD-NH2) | 88 ± 4
CCOc1ccc(C[C@H](NC(=O)[C@H](Cc2c[nH]c3ccccc23)NC(=O)[C@H](Cc2c[nH]c3ccccc23)NC(=O)[C@@H](NC(=O)[C@H](CC(=O)O)NC(=O)[C@H](CO)NC(=O)[C@H](CC(=O)O)NC(=O)[C@H](CC(=O)O)NC(=O)[C@H](CCC(=O)O)NC(C)=O)C(C)C)C(=O)NCC(=O)N[C@@H](C)C(=O)N[C@@H](CC(=O)O)C(=O)N[C@H](C(=O)N[C@@H](CC(=O)O)C(N)=O)[C@@H](C)O)cc1 (Ac-EDDSDVWWY(Et)GADTD-NH2) | 113 ± 2
COc1ccc(C[C@H](NC(=O)[C@H](Cc2c[nH]c3ccccc23)NC(=O)[C@H](Cc2c[nH]c3ccccc23)NC(=O)[C@@H](NC(=O)[C@H](CC(=O)O)NC(=O)[C@H](CO)NC(=O)[C@H](CC(=O)O)NC(=O)[C@H](CC(=O)O)NC(=O)[C@H](CCC(=O)O)NC(C)=O)C(C)C)C(=O)NCC(=O)N[C@@H](C)C(=O)N[C@@H](CC(=O)O)C(=O)N[C@H](C(=O)N[C@@H](CC(=O)O)C(N)=O)[C@@H](C)O)cc1 (Ac-EDDSDVWWY(Me)GADTD-NH2) | 109 ± 4
